According to US11987647B2, “Cyclic cell-penetrating peptides with one or more hydrophobic residues” (Ohio State Innovation Foundation, priority 2018, dated 2024):
The star is where a group is joined. Decanoyl = CCCCCCCCCC(=O)*

Experiments:
Format in all cases: cell-based
HeLa cells [1] = test: Cytosolic entry efficiency of NF-labelled peptides by flow cytometry; settings: for Cellular Entry Efficiency In 10% FBS: 2 h, relative to CPP12 (100%)
Experimental: All of the peptides were labeled with naphthofluorescein (NF) at the Gln side chain through a long, flexible linker, miniPEG-Lys. HeLa cells were treated with 5 μM peptide for 2 h in the presence of 10% FBS and the cytosolic entry of the peptides was quantitated by flow cytometry analysis.
To determine cellular uptake efficiency of the CPPs disclosed herein, HeLa cells were cultured in 12-well plates (1.5×10^5 cells per well) overnight. The cells were incubated for 2 h with […] naphthofluorescein (NF)-labelled peptide in cellular media. At the end of incubation, the cells were washed with DPBS twice, detached from the plate with 0.25% trypsin, diluted into clear DMEM, pelleted at 250 g for 5 min, washed twice with DPBS, resuspended in DPBS, and analyzed on a BD FACS LSR II flow cytometer. For NF-labelled peptides, a 633-nm laser was used for excitation and the fluorescence emission was analyzed in the APC channel. Absolute cellular uptake efficiency was determined by comparing the concentration (via fluorescence intensity) of the CPP in the cytosol to the concentration in the extracellular medium. Relative cellular uptake efficiency was determined by comparing the cytosolic concentration of the CPP to that cytosolic concentration of the control CPP cyclo(FΦRRRRQ).

HeLa cells [2] = test: Cytotoxicity by the MTT assay; settings: no label, up to 40 μM concentration
From the text: CPP1-15 (no label) was used as a representative and tested against HeLa cells for potential cytotoxicity by the MTT assay.

HeLa cells [3] = test: Cellular entry by live-cell confocal imaging of FITC-labelled peptides; settings: 5 μM FITC-labelled peptide, 2 h
Experimental: CPP1-15 and CPP1-20 were labeled with FITC via a miniPEG-Lys linker. HeLa cells were treated with 5 μM peptide for 2 h, washed, and imaged by live-cell confocal imaging. […] Additional experiments are ongoing to further examine their mechanism of cell entry.

HeLa cells [4] = test: Cytosolic entry efficiency of NF-labelled peptides by flow cytometry; settings: for Cellular Entry Efficiency In 1% FBS: relative to CPP12 (100%)

cyclo(Lys^DecaRRRRQ) (cyclo(K(Decanoyl)RRRRQ); SMILES CCCCCCCCCC(=O)NCCCC[C@@H]1NC(=O)[C@H](CCC(N)=O)NC(=O)[C@H](CCCNC(=N)N)NC(=O)[C@H](CCCNC(=N)N)NC(=O)[C@H](CCCNC(=N)N)NC(=O)[C@H](CCCNC(=N)N)NC1=O) [CPP1-15]
sensitivity to serum concentration (HeLa cells [1]; 10% vs 1% FBS, compared with CPP9 or CPP12): lower sensitivity to serum concentration
Cellular Entry Efficiency In 10% FBS (HeLa cells [1]; Table 4, 5 μM NF-labelled peptide): 76 ± 21%
Cellular Entry Efficiency In 10% FBS (HeLa cells [1]; Table 7, 5 μM NF-labelled peptide): 76 ± 21%
CPP activity compared with CPP1-4 (in words) (HeLa cells [1]; variant of CPP1-4): slightly increased the CPP activity
cytotoxicity (HeLa cells [2]): did not show significant cytotoxicity
cellular entry (confocal imaging) (HeLa cells [3]): entered HeLa cells efficiently
Cellular Entry Efficiency In 1% FBS (HeLa cells [4]; Table 4, NF-labelled peptide): 44 ± 11%
Cellular Entry Efficiency In 1% FBS (HeLa cells [4]; Table 7, NF-labelled peptide): 44 ± 11%
cytosolic entry efficiency (HeLa cells [4]; reduced serum concentration (1% FBS), CPP12 most active): 43%
